Reference: patent EP0745595A1, “3-(3-Aryloxyphenyl)-1-(substituted methyl)-s-triazine-2,4,6-oxo or thiotrione herbicidal agents” (American Cyanamid Company, priority 1995, dated 1996)

Legend:
Type in all cases: in vivo
[1] = test system: TRITICUM AESTIVUM, CV. APOLLO; assay: Preemergence herbicidal evaluation, TRZAWO (Wheat, Winter, CV. APOLLO); conditions: rated four to five weeks after treatment
Source text: (§1) Results of herbicide evaluation are expressed on a rating scale (0-9). The scale is based upon a visual observation of plant stand, vigor, malformation, size, chlorosis and overall plant appearance as compared with a control.
(§2) The preemergence herbicidal activity of the test compounds of the present invention is exemplified by the following tests in which the seeds of a variety of monocotyledonous and dicotyledonous plants are separately mixed with potting soil and planted on top of approximately one inch of soil in separate pint cups. […] The treated cups are then placed on greenhouse benches, watered and cared for in accordance with conventional greenhouse procedures. From four to five weeks after treatment, the tests are terminated and each cup is examined and rated according to the rating system provided in Example 40.
(§3) The compounds evaluated are reported by compound number given in Example 40.

GALIUM APARINE = assay: Preemergence herbicidal evaluation, GALAP (Galium); conditions: rated four to five weeks after treatment
Source text: as §1, §2, §3

[2] = test system: AMBROSIA ARTEMISIIFOLIA, L.; assay: Preemergence herbicidal evaluation, AMBEL (Ragweed, Common); conditions: rated four to five weeks after treatment
Source text: as §1, §2, §3

CASSIA OBTUSIFOLIA, L. = assay: Preemergence herbicidal evaluation, CASOB (Sicklepod); conditions: rated four to five weeks after treatment
Outline: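 Seeds of various monocot and dicot plants, including sicklepod, were each mixed with potting soil and sown on roughly one inch of soil in separate pint cups for preemergence testing. Treated cups were kept on greenhouse benches, watered and maintained conventionally. Four to five weeks after treatment, each cup was visually rated on a 0-9 scale against a control.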

IPOMOEA SPP. = assay: Preemergence herbicidal evaluation, IPOSS (Morningglory spp.); conditions: rated four to five weeks after treatment
Source text: as §1, §2, §3

[3] = test system: ORYZA SATIVA, L. TEBONNET; assay: Rice tolerance to post-transplant applications under flooded paddy conditions, ORYSAT (Rice, Tebonnet); conditions: post-transplant rice, 3-4 weeks after treatment
Outline: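 Two ten-day-old Tebonnet rice seedlings were transplanted into silt loam and kept flooded 1.5 to 3 cm deep. Three days after transplanting, the flood surface received the compound in aqueous/acetone 50/50 v/v at about 0.5, 0.25, 0.125 or 0.063 kg/ha. Injury was rated visually on a 0-9 scale versus control after 3-4 weeks.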

SAGITTARIA PYGMAEA, L. = assay: Preemergence weed control under flooded paddy conditions, SAGPY (Arrowhead (Pygmaea)); conditions: preemergence, 3-4 weeks after treatment
Outline: (§4)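 Seeds or propagules sown in top 0.5 cm of silt loam in undrained containers, flooded 1.5 to 3 cm throughout. Compounds in aqueous/acetone 50/50 v/v pipetted into flood water at about 0.5, 0.25, 0.125 and 0.063 kg/ha. Visual 0-9 rating versus control after three to four weeks in greenhouse.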

[4] = test system: CYPERUS SEROTINUS, ROTTB.; assay: Preemergence weed control under flooded paddy conditions, CYPSE (Flatsedge); conditions: preemergence, 3-4 weeks after treatment
Outline: as §4

**Q.** With `Cn1c(=O)n(CC(=O)OC(C)(C)C)c(=O)n(-c2cc(Oc3ccc(C(F)(F)F)cc3Cl)ccc2Cl)c1=O` [Compound 40, Tert-butyl 3-{[2-chloro-5-(2-chloro-α,α,α-trifluoro-p-tolyl)oxy]phenyl}tetrahydro-5-methyl-2,4,6-trioxo-s-triazine-1(2H)-acetate] as the compound, how does the TRZAWO herbicidal rating ([1]; Rate 0.125 kg/ha) read?
**A.** Its TRZAWO herbicidal rating is 0.0.

**Q.** And the TRZAWO herbicidal rating ([1]; Rate 0.250 kg/ha)?
**A.** Its TRZAWO herbicidal rating is 0.0.

**Q.** What about the GALAP herbicidal rating (GALIUM APARINE; Rate 0.125 kg/ha) of the same compound?
**A.** Its GALAP herbicidal rating is 4.5.

**Q.** And the GALAP herbicidal rating (GALIUM APARINE; Rate 0.250 kg/ha)?
**A.** The GALAP herbicidal rating was 4.5.

**Q.** What about the AMBEL herbicidal rating ([2]; Rate 0.125 kg/ha) of the same compound?
**A.** Its AMBEL herbicidal rating is 0.0.

**Q.** And the AMBEL herbicidal rating ([2]; Rate 0.250 kg/ha)?
**A.** Its AMBEL herbicidal rating is 0.0.

**Q.** And the CASOB herbicidal rating (CASSIA OBTUSIFOLIA, L.; Rate 0.125 kg/ha)?
**A.** Its CASOB herbicidal rating is 1.0.

**Q.** What about the CASOB herbicidal rating (CASSIA OBTUSIFOLIA, L.; Rate 0.250 kg/ha) of the same compound?
**A.** Its CASOB herbicidal rating is 1.0.

**Q.** What about the IPOSS herbicidal rating (IPOMOEA SPP.; Rate 0.125 kg/ha) of the same compound?
**A.** Its IPOSS herbicidal rating is 0.5.

**Q.** And the IPOSS herbicidal rating (IPOMOEA SPP.; Rate 0.250 kg/ha)?
**A.** Its IPOSS herbicidal rating is 0.5.

**Q.** What about the “Herbicidal effect rating, ORYSAT” value ([3]; 0.063 kg/ha) of the same compound?
**A.** The value was 0.5.

**Q.** And the “Herbicidal effect rating, ORYSAT” value ([3]; 0.125 kg/ha)?
**A.** The value was 0.5.

**Q.** And the “Herbicidal effect rating, ORYSAT” value ([3]; 0.250 kg/ha)?
**A.** Its value is 1.5.

**Q.** And the “Herbicidal effect rating, ORYSAT” value ([3]; 0.500 kg/ha)?
**A.** The value was 1.5.

**Q.** And the “Herbicidal effect rating, SAGPY” value (SAGITTARIA PYGMAEA, L.; 0.063 kg/ha)?
**A.** The value was 0.0.

**Q.** And the “Herbicidal effect rating, SAGPY” value (SAGITTARIA PYGMAEA, L.; 0.125 kg/ha)?
**A.** Its value is 0.0.

**Q.** And the “Herbicidal effect rating, SAGPY” value (SAGITTARIA PYGMAEA, L.; 0.250 kg/ha)?
**A.** The value was 0.0.

**Q.** And the “Herbicidal effect rating, SAGPY” value (SAGITTARIA PYGMAEA, L.; 0.500 kg/ha)?
**A.** Its value is 0.0.

**Q.** And the “Herbicidal effect rating, CYPSE” value ([4]; 0.063 kg/ha)?
**A.** The value was 0.0.

**Q.** What about the “Herbicidal effect rating, CYPSE” value ([4]; 0.125 kg/ha) of the same compound?
**A.** Its value is 0.0.

**Q.** And the “Herbicidal effect rating, CYPSE” value ([4]; 0.250 kg/ha)?
**A.** The value was 0.0.

**Q.** And the “Herbicidal effect rating, CYPSE” value ([4]; 0.500 kg/ha)?
**A.** Its value is 0.0.
